Data published in ChEMBL document CHEMBL1201862, “PubChem BioAssay data set” (2004).
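Step 1: Grow cells in 96-well plates. Step 2: Expose to compound for 48 hours at 5 concentrations. Step 3: Interpolate endpoints linearly; if unreached, use highest concentration. At the GI50, growth is halved.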 Active and inactive are the calls of the source. Rule as the data show it: active = GI50 up to about 1.1 µM and inactive = higher.

Key:
Test in all cases: NCI tumour cell line growth inhibition, 48 h
NCI/ADR-RES = test system: NCI/ADR-RES
RPMI-8226 = test system: RPMI-8226
UACC-257 = test system: UACC-257
OVCAR-3 = test system: OVCAR-3
SK-OV-3 = test system: SK-OV-3
786-0 = test system: 786-0
MOLT-4 = test system: MOLT-4
HCT-116 = test system: HCT-116
SF-539 = test system: SF-539
OVCAR-8 = test system: OVCAR-8
K562 = test system: K562
SW-620 = test system: SW-620
SK-MEL-28 = test system: SK-MEL-28
UO-31 = test system: UO-31
OVCAR-4 = test system: OVCAR-4
A549 = test system: A549
CCRF-CEM = test system: CCRF-CEM
NCI-H226 = test system: NCI-H226
RXF 393 = test system: RXF 393

Measured: GI50

CC(=O)NS(=O)(=O)c1ccc(NC(=O)c2c3ccccc3nc3ccccc23)cc1
inactive: NCI/ADR-RES > 100 µM | RPMI-8226 > 100 µM | UACC-257 > 100 µM | OVCAR-3 > 100 µM | SK-OV-3 > 100 µM | 786-0 > 100 µM | MOLT-4 > 100 µM | HCT-116 > 100 µM | SF-539 > 100 µM | OVCAR-8 > 100 µM | K562 > 100 µM | SW-620 > 100 µM | SK-MEL-28 > 100 µM | UO-31 30.4 µM | OVCAR-4 > 100 µM | A549 > 100 µM | CCRF-CEM > 100 µM

Cc1cc2nnn(C3CCCCO3)c2cc1C (stereo not drawn)
inactive: NCI/ADR-RES > 100 µM | UACC-257 > 100 µM | OVCAR-3 > 100 µM | SK-OV-3 > 100 µM | NCI-H226 > 100 µM | 786-0 > 100 µM | MOLT-4 > 100 µM | RXF 393 > 100 µM | HCT-116 > 100 µM | SF-539 > 100 µM | OVCAR-8 > 100 µM | K562 > 100 µM | UO-31 98.2 µM | OVCAR-4 > 100 µM | A549 > 100 µM | CCRF-CEM > 100 µM

COC1=C(OC)C(=O)C(Cc2c(C)nc3sc(C)cn23)=C(C)C1=O
inactive: NCI/ADR-RES 15.9 µM | RPMI-8226 16.3 µM | UACC-257 12.8 µM | OVCAR-3 17.5 µM | SK-OV-3 22 µM | 786-0 19.7 µM | MOLT-4 1.7 µM | RXF 393 20.9 µM | HCT-116 19.8 µM | SF-539 17.4 µM | OVCAR-8 17.1 µM | K562 16.9 µM | SW-620 25.5 µM | SK-MEL-28 16.1 µM | UO-31 16.8 µM | OVCAR-4 10.9 µM | A549 19.5 µM | CCRF-CEM 7.13 µM

O=C(/C=C/c1ccc(Cl)cc1)Oc1ccc(/C=C2\CCCCC2=O)cc1
inactive: RPMI-8226 > 100 µM | UACC-257 > 100 µM | OVCAR-3 > 100 µM | 786-0 > 100 µM | MOLT-4 28.8 µM | HCT-116 > 100 µM | SF-539 > 100 µM | OVCAR-8 > 100 µM | SW-620 > 100 µM | SK-MEL-28 > 100 µM | UO-31 > 100 µM | OVCAR-4 > 100 µM | A549 > 100 µM | CCRF-CEM 55.5 µM

Nc1nc(=O)n([C@@H]2CC[C@H](CO)O2)cc1F
inactive: RPMI-8226 > 100 µM | UACC-257 > 100 µM | OVCAR-3 > 100 µM | SK-OV-3 > 100 µM | NCI-H226 > 100 µM | 786-0 > 100 µM | MOLT-4 > 100 µM | RXF 393 > 100 µM | OVCAR-8 > 100 µM | K562 > 100 µM | SW-620 > 100 µM | SK-MEL-28 > 100 µM | UO-31 > 100 µM | OVCAR-4 > 100 µM | A549 > 100 µM | CCRF-CEM > 100 µM

CCOC(=O)C1=C(C)N(C)C23OC4(C(=O)OC)CC2c2ccccc2C1N3C4=O (stereo not drawn)
inactive: NCI/ADR-RES 86.9 µM | RPMI-8226 44.8 µM | UACC-257 > 100 µM | OVCAR-3 > 100 µM | SK-OV-3 > 100 µM | NCI-H226 > 100 µM | 786-0 > 100 µM | MOLT-4 74.8 µM | HCT-116 49.8 µM | SF-539 22.3 µM | OVCAR-8 > 100 µM | K562 83 µM | SW-620 41.9 µM | SK-MEL-28 > 100 µM | UO-31 25.1 µM | OVCAR-4 > 100 µM | A549 > 100 µM | CCRF-CEM 79.6 µM

Cc1cccc(C(C)(C)C)c1NC(=O)/C(Cc1nc2ccc([N+](=O)[O-])cc2nc1O)=N\NC(=O)C[N+](C)(C)C
inactive: NCI/ADR-RES 60.5 µM | RPMI-8226 84.5 µM | UACC-257 > 100 µM | OVCAR-3 52 µM | SK-OV-3 > 100 µM | NCI-H226 > 100 µM | 786-0 > 100 µM | MOLT-4 38.5 µM | HCT-116 > 100 µM | SF-539 > 100 µM | OVCAR-8 > 100 µM | K562 > 100 µM | SW-620 65.8 µM | SK-MEL-28 > 100 µM | UO-31 37.8 µM | OVCAR-4 > 100 µM | A549 > 100 µM

CCCCCCCCCC1(N=[N+]=[N-])C(=O)c2ccccc2N(C)C1=O (stereo not drawn)
inactive: NCI/ADR-RES 26.7 µM | RPMI-8226 39.9 µM | UACC-257 32.9 µM | OVCAR-3 25 µM | SK-OV-3 25.1 µM | 786-0 38.5 µM | MOLT-4 7.13 µM | RXF 393 22.6 µM | HCT-116 21.1 µM | SF-539 70 µM | K562 19.8 µM | SW-620 19.3 µM | SK-MEL-28 28.8 µM | UO-31 19.4 µM | OVCAR-4 67.1 µM | A549 25.5 µM | CCRF-CEM 16.8 µM
